Results from patent US20050276815A1, “Antiviral activity from medicinal mushrooms” (priority 2004, published 2005).

Experiments:
Vaccinia = assay type: cell-based
Cowpox = assay type: cell-based

Question: How did the PR CDV EC50 (Vaccinia) turn out when `Nc1ccn(C[C@@H](CO)OCP(=O)(O)O)c(=O)n1` [CDV] was run?
Answer: The PR CDV EC50 was 4.9 µg/mL.

Question: What about the PR CDV EC50 (Cowpox) of the same molecule?
Answer: Its PR CDV EC50 is 10.3 µg/mL.
